Assay results reported in patent US20100221763A1, “Specific Acceptors for Transferases to Saccharides and Method for Obtaining and Using Same” (Health Research, Inc, priority 2005, published 2010).

Key:
[1] = system: β-GlcNAc:β1,4GalNAc-T of breast tumor BC9400; assay: β-GlcNAc:β1,4GalNAc-T assay, breast tumor extract; type: biochemical, human; settings: other acceptors, 1 mg protein of the tissue extract
Method: (§1) Colon tumor tissue (CC9338) and breast tumor tissue (BC9400) were obtained during surgical procedures at Roswell Park Cancer Institute and stored frozen within 1 h at −70° C. The tissues were homogenized at 4° C. with 4 volumes of 0.1M Tris Maleate […] 0.1% NaN3 using kinematica. After adjusting the concentration of Triton X-100 to 2%, these homogenates were mixed in the cold room for 1 h using Speci-Mix (Thermolyne) and then centrifuged at 20,000 g for 1 h at 4° C. The clear fat-free supernatant was stored frozen at −20° C. until use. Aliquots of 10 μL from this extract were used in assays run in duplicates. Glycosyltransferase activity in cell lysate was determined by mixing the lysates with acceptor and radiolabeled donor (monosaccharide) under the reaction conditions detailed below, followed by separation of un-reacted donor from the radioactive product using anionic or hydrophobic chromatography. In all cases, the radioactive content of isolated products was determined by using 3a70 scintillation cocktail (Research Products International, Mount Prospect, Ill.) and a Beckman LS6500 scintillation counter. Controls for each assay contained the reaction mixture with everything except the acceptor. All assays were run in duplicate.
(§2) The acceptors used for measuring the glycosyltransferase and sulfotransferase activities are given in Table I. The following are the conditions for individual enzymatic assays. Reaction temperature in all cases was 37° C. α2,3- and α2,6 sialytransferase (ST) assay reactions proceeded for 2 h in a mixture containing 100 mM sodium cacodylate buffer (pH 6.0), 7.5 mM acceptor, CMP-[9-^3H]NeuAc (typically 0.2 μCi) and 10 μl cell extract in a total volume of 20 μl [Chandrasekaran et al., 1995]. βGlcNAc:β1,4Gal-T and αGalNAc:β1,3Gal-T assay mixtures in duplicate contained 0.1M Hepes-NaOH pH 7.0, 7 mM ATP, 20 mM Mn acetate, 1 mM UDP-Gal, UDP [^14C]Gal (0.05 μCi; 327mCi/mmol; Amersham), 0.5 mM acceptor (unless otherwise stated) and the enzyme in a total volume of 20 μL. It was incubated for 4 h [Chandrasekaran et al., 2001]. βGlcNAc:β1,4GalNAc-T assay mixtures in duplicate contained 0.1M Hepes-NaOH pH 7.0, 7 mM ATP, 20 mM Mn acetate. UDP [^3H] GalNAc (0.20 μCi; 7.8 Ci/mmol: New England Nuclear Corp.) 7.5 mM acceptor (unless otherwise stated) and the enzyme in a total volume of 20 μL and incubated for 4 h [Chandrasekaran et al., 2001].
(§3) Dowex-1-C1 or Sep-Pak C18 cartridges were used to isolate radiolabeled product from the reaction mixture. For GalT, GalNAc-T and FT assays, the incubation mixture was diluted with 1 ml water and passed through a 1 ml Dowex-1-C1 column [Chandrasekaran et al., 1996; Chandrasekaran et al., 2001]. The column was washed twice with 1 ml of water. The breakthrough and the water wash contained the [^14C]-galactosylated or [^14C]-fucosylated products formed with neutral acceptors. 3 ml of 0.1M NaCl was used to obtain [^14C]-fucosylated products from sialylated acceptors after water elution. For sialytransferase assays, the radioactive products from benzylglycosides were separated by hydrophobic chromatography on Sep-Pak C18 cartridge (Waters, Milford, Mass.), and elution of the product was done with 3 ml methanol [Palcic et al., 1988]. For sulfotransferase assays, elution of the [^35S]-sulfated compound from Dowex-1-C1 column was achieved by 3 ml of 0.2M NaCl [Chandrasekaran et al., 2004].

[2] = system: β-GlcNAc:β1,4Gal-T of breast tumor BC9400; assay: β-GlcNAc:β1,4Gal-T assay, breast tumor extract; type: biochemical, human; settings: other acceptors, 1 mg protein of the tissue extract
Method: as §1, §2, §3

[3] = system: β-GlcNAc:β1,4Gal-T of colon tumor CC9338; assay: β-GlcNAc:β1,4Gal-T assay, colon tumor extract; type: biochemical, human; settings: other acceptors, 1 mg protein of the tissue extract
Method: as §1, §2, §3

[4] = system: β-GlcNAc:β1,4GalNAc-T of colon tumor CC9338; assay: β-GlcNAc:β1,4GalNAc-T assay, colon tumor extract; type: biochemical, human; settings: other acceptors, 1 mg protein of the tissue extract
Method: as §1, §2, §3

Siglec 4 (MAG) = settings: Blixt et al. (49); cited from earlier work
L-Selectin = L-Selectin (Homo sapiens, UniProt P14151); settings: compared to NeuAcα2,3Galβ1,4(Fucα1,3)GlcNAcβ-O-Me (sialyl Lewis-x); cited from earlier work
L-Selectin, sequence (P14151 39-372, species assumed): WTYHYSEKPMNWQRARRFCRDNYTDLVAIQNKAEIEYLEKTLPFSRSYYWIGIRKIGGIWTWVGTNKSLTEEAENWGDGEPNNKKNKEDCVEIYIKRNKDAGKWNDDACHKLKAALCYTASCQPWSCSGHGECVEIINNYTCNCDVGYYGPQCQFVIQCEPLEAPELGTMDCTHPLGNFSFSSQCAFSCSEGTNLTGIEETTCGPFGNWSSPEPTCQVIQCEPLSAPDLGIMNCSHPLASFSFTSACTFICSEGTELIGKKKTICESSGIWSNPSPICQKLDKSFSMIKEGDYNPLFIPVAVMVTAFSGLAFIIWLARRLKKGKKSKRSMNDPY

P-Selectin = P-Selectin (Homo sapiens, UniProt P16109); settings: compared to NeuAcα2,3Galβ1,4(Fucα1,3)GlcNAcβ-O-Me (sialyl Lewis-x); cited from earlier work
P-Selectin, sequence (P16109 42-830, species assumed): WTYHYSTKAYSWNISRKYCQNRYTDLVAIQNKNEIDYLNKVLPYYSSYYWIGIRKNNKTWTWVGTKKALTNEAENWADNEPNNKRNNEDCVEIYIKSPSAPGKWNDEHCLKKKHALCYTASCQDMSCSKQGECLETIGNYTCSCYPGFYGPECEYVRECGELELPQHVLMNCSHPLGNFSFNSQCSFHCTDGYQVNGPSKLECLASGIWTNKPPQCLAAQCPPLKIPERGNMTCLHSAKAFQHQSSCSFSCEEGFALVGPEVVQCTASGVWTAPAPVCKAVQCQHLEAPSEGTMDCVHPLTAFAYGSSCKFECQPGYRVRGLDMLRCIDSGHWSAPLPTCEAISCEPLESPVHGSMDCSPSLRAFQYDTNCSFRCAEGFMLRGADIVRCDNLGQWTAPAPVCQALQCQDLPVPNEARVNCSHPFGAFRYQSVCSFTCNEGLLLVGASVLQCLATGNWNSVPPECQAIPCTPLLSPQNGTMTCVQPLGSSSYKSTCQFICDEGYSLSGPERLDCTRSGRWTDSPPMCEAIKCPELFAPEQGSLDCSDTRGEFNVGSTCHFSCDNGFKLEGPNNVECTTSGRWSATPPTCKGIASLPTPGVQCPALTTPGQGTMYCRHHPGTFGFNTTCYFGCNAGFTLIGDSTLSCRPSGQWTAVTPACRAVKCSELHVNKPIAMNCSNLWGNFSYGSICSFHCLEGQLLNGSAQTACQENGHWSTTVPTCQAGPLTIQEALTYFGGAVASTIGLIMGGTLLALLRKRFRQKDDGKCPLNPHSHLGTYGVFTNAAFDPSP

SMILES	b) β-GlcNAc:β1,4GalNAc-T activity: incorporation of radioactive sugar [1]	a) β-GlcNAc:β1,4Gal-T activity: incorporation of radioactive sugar [2]	a) β-GlcNAc:β1,4Gal-T activity: incorporation of radioactive sugar [3]	b) β-GlcNAc:β1,4GalNAc-T activity: incorporation of radioactive sugar [4]	fold more potent than NeuAcα2,6GalNAcα-O-Thr in inhibiting Siglec 4 (MAG) binding (Siglec 4 (MAG))	other results
CO[C@@H]1O[C@H](CO)[C@H](O)[C@H](O[C@@H]2O[C@H](CO)[C@@H](O)[C@H](O)[C@H]2NC(C)=O)[C@H]1O [GlcNAcβ1,3Galβ-O-Me]	60.9 CPM × 10^−3	338.5 CPM × 10^−3	247.9 CPM × 10^−3	20.9 CPM × 10^−3	–	–
CC(=O)NC1C(O)CC(OCC2OC(OC(C)C(N)C(=O)O)C(NC(C)=O)C(OC3OC(CO)C(O)C(OC4(C(=O)O)CC(O)C(NC(C)=O)C(C(O)C(O)CO)O4)C3O)C2O)(C(=O)O)OC1C(O)C(O)CO (stereo not drawn) [NeuAcα2,3Galβ1,3(NeuAcα2,6)GalNAcα-O-Thr, NeuAcα2,3Galβ1,3 (NeuAcα2,6)GalNAcα-O-Thr]	–	–	–	–	3,000 fold	–
CC(=O)NC1C(O)CC(OC2C(O)C(CO)OC(OC3C(O)C(CO)OC(OC(C)C(N)C(=O)O)C3NC(C)=O)C2O)(C(=O)O)OC1C(O)C(O)CO (stereo not drawn) [NeuAcα2,3Galβ1,3GalNAcα-O-Thr]	–	–	–	–	600 fold	–
COC1OC(COC2OC(CO)C(OC3OC(CO)C(O)C(O)C3NC(C)=O)C(OC3OC(C)C(O)C(O)C3O)C2NC(C)=O)C(O)C(OC2OC(CO)C(O)C(OC3(C(=O)O)CC(O)C(NC(C)=O)C(C(O)C(O)CO)O3)C2O)C1NC(C)=O (stereo not drawn) [GalNAcβ1,4(Fucα1,3)GlcNAcβ1,6(NeuAcα2,3Galβ1,3) GalNAcα-O-Me]	–	–	–	–	–	fold better inhibitor of L-Selectin binding (L-Selectin): 5-6 fold; fold better inhibitor of P-Selectin binding (P-Selectin): 5-6 fold
C=CCO[C@@H]1O[C@H](CO[C@@H]2O[C@H](CO)[C@@H](O)[C@H](O)[C@@H]2O[C@@H]2O[C@H](CO)[C@@H](O)[C@H](O)[C@H]2NC(C)=O)[C@@H](O)[C@H](O)[C@H]1O [GlcNAcβ1,2Manβ1,6Glcβ-O—Al]	57.9 CPM × 10^−3	70.5 CPM × 10^−3	277.7 CPM × 10^−3	25.6 CPM × 10^−3	–	–
